Calls of active or inactive are those of the source. No rule for the calls is given here.
System: CCRIS mutagenicity, Ames/micronucleus/aberration tests
Assay: CCRIS mutagenicity studies
[1] = Test System: AMES SALMONELLA TYPHIMURIUM, Strain/Indicator: TA98, Metabolic Activation: NONE, Method: PREINCUBATION
[2] = Test System: AMES SALMONELLA TYPHIMURIUM, Strain/Indicator: TA98, Metabolic Activation: RAT, LIVER, S-9, PCB, Method: PREINCUBATION
[3] = Test System: AMES SALMONELLA TYPHIMURIUM, Strain/Indicator: TA100, Metabolic Activation: NONE, Method: PREINCUBATION
[4] = Test System: AMES SALMONELLA TYPHIMURIUM, Strain/Indicator: TA100, Metabolic Activation: RAT, LIVER, S-9, PCB, Method: PREINCUBATION
[5] = Test System: AMES SALMONELLA TYPHIMURIUM, Strain/Indicator: TA98, Metabolic Activation: NONE, Method: STANDARD PLATE
[6] = Test System: AMES SALMONELLA TYPHIMURIUM, Strain/Indicator: TA100, Metabolic Activation: NONE, Method: STANDARD PLATE
[7] = Test System: AMES SALMONELLA TYPHIMURIUM, Strain/Indicator: TA97, Metabolic Activation: NONE, Method: PREINCUBATION

In the case of `COc1ccc2c(c1)c(CC(=O)O)c(C)n2C(=O)c1ccc(Cl)cc1`, the mutagenic call (Test System: AMES SALMONELLA TYPHIMURIUM, Strain/Indicator: TA98, Metabolic Activation: GUINEA PIG, LIVER, S-9, PCB, Method: PREINCUBATION) is reported as “inactive; negative”, the mutagenic call (Test System: AMES SALMONELLA TYPHIMURIUM, Strain/Indicator: TA98, Metabolic Activation: HAMSTER, LIVER, S-9, PCB, Method: PREINCUBATION) is reported as “inactive; negative” and the mutagenic call (Test System: AMES SALMONELLA TYPHIMURIUM, Strain/Indicator: TA98, Metabolic Activation: MOUSE, LIVER, S-9, PCB, Method: PREINCUBATION) is reported as “inactive; negative”. The mutagenic call [1] was “inactive; negative”, the mutagenic call [2] was “inactive; negative” and the mutagenic call (Test System: AMES SALMONELLA TYPHIMURIUM, Strain/Indicator: TA98, Metabolic Activation: RAT, LIVER, S-9, PCB, Method: STANDARD PLATE) was “inactive; negative”. For the same compound, the mutagenic call (Test System: AMES SALMONELLA TYPHIMURIUM, Strain/Indicator: TA100, Metabolic Activation: GUINEA PIG, LIVER, S-9, PCB, Method: PREINCUBATION) was “inactive; negative”, the mutagenic call (Test System: AMES SALMONELLA TYPHIMURIUM, Strain/Indicator: TA100, Metabolic Activation: HAMSTER, LIVER, S-9, PCB, Method: PREINCUBATION) was “inactive; negative” and the mutagenic call (Test System: AMES SALMONELLA TYPHIMURIUM, Strain/Indicator: TA100, Metabolic Activation: MOUSE, LIVER, S-9, PCB, Method: PREINCUBATION) was “inactive; negative”. For the same compound, the mutagenic call [3] was “inactive; negative”, the mutagenic call [4] was “active; positive” and the mutagenic call (Test System: AMES SALMONELLA TYPHIMURIUM, Strain/Indicator: TA100, Metabolic Activation: RAT, LIVER, S-9, PCB, Method: STANDARD PLATE) was “inactive; negative”. The mutagenic call (Test System: AMES SALMONELLA TYPHIMURIUM, Strain/Indicator: TA1537, Metabolic Activation: RAT, LIVER, S-9, PCB, Method: STANDARD PLATE) was “inactive; negative”, the mutagenic call (Test System: AMES SALMONELLA TYPHIMURIUM, Strain/Indicator: TA1538, Metabolic Activation: RAT, LIVER, S-9, PCB, Method: STANDARD PLATE) was “inactive; negative” and the mutagenic call (Test System: E. COLI, Strain/Indicator: WP2 UVRA, Metabolic Activation: RAT, LIVER, S-9, PCB, Method: STANDARD PLATE) was “inactive; negative”.

For `COc1nncc2ccncc12`, the mutagenic call [1] was “inactive; negative”, the mutagenic call [2] was “inactive; negative” and the mutagenic call [3] was “inactive; negative”. For the same compound, the mutagenic call [4] was “inactive; negative”.

With `CCOc1ccccc1OCC1CNCCO1` (configuration not stated) the mutagenic call [5] was “inactive; negative”, the mutagenic call (Test System: AMES SALMONELLA TYPHIMURIUM, Strain/Indicator: TA98, Metabolic Activation: RAT, LIVER, S-9, AROCLOR 1254, Method: STANDARD PLATE) was “inactive; negative” and the mutagenic call [6] was “inactive; negative”. For the same compound, the mutagenic call (Test System: AMES SALMONELLA TYPHIMURIUM, Strain/Indicator: TA100, Metabolic Activation: RAT, LIVER, S-9, AROCLOR 1254, Method: STANDARD PLATE) was “inactive; negative”, the mutagenic call (Test System: AMES SALMONELLA TYPHIMURIUM, Strain/Indicator: TA1535, Metabolic Activation: NONE, Method: STANDARD PLATE) was “inactive; negative” and the mutagenic call (Test System: AMES SALMONELLA TYPHIMURIUM, Strain/Indicator: TA1535, Metabolic Activation: RAT, LIVER, S-9, AROCLOR 1254, Method: STANDARD PLATE) was “inactive; negative”. For the same compound, the mutagenic call (Test System: AMES SALMONELLA TYPHIMURIUM, Strain/Indicator: TA1537, Metabolic Activation: NONE, Method: STANDARD PLATE) was “inactive; negative” and the mutagenic call (Test System: AMES SALMONELLA TYPHIMURIUM, Strain/Indicator: TA1537, Metabolic Activation: RAT, LIVER, S-9, AROCLOR 1254, Method: STANDARD PLATE) was “inactive; negative”.

With `N#CCCC#N` the mutagenic call (Test System: AMES SALMONELLA TYPHIMURIUM, Strain/Indicator: TA97, Metabolic Activation: HAMSTER, LIVER, S-9, AROCLOR 1254 (10 OR 30%), Method: PREINCUBATION) was “inactive; negative”, the mutagenic call [7] was “inactive; negative” and the mutagenic call (Test System: AMES SALMONELLA TYPHIMURIUM, Strain/Indicator: TA97, Metabolic Activation: RAT, LIVER, S-9, AROCLOR 1254 (10 OR 30%), Method: PREINCUBATION) was “inactive; negative”. The mutagenic call (Test System: AMES SALMONELLA TYPHIMURIUM, Strain/Indicator: TA98, Metabolic Activation: HAMSTER, LIVER, S-9, AROCLOR 1254 (10 OR 30%), Method: PREINCUBATION) was “inactive; negative”, the mutagenic call [1] was “inactive; negative” and the mutagenic call (Test System: AMES SALMONELLA TYPHIMURIUM, Strain/Indicator: TA98, Metabolic Activation: RAT, LIVER, S-9, AROCLOR 1254 (10 OR 30%), Method: PREINCUBATION) was “inactive; negative”. The mutagenic call (Test System: AMES SALMONELLA TYPHIMURIUM, Strain/Indicator: TA100, Metabolic Activation: HAMSTER, LIVER, S-9, AROCLOR 1254 (10 OR 30%), Method: PREINCUBATION) was “inactive; negative”, the mutagenic call [3] was “inactive; negative” and the mutagenic call (Test System: AMES SALMONELLA TYPHIMURIUM, Strain/Indicator: TA100, Metabolic Activation: RAT, LIVER, S-9, AROCLOR 1254 (10 OR 30%), Method: PREINCUBATION) was “inactive; negative”. For the same compound, the mutagenic call (Test System: AMES SALMONELLA TYPHIMURIUM, Strain/Indicator: TA1535, Metabolic Activation: HAMSTER, LIVER, S-9, AROCLOR 1254 (10 OR 30%), Method: PREINCUBATION) was “inactive; negative”, the mutagenic call (Test System: AMES SALMONELLA TYPHIMURIUM, Strain/Indicator: TA1535, Metabolic Activation: NONE, Method: PREINCUBATION) was “inactive; negative” and the mutagenic call (Test System: AMES SALMONELLA TYPHIMURIUM, Strain/Indicator: TA1535, Metabolic Activation: RAT, LIVER, S-9, AROCLOR 1254 (10 OR 30%), Method: PREINCUBATION) was “inactive; negative”.

`[Cl][Sn]([c]1ccccc1)([c]1ccccc1)[c]1ccccc1` was tested, and the mutagenic call (Test System: AMES SALMONELLA TYPHIMURIUM, Strain/Indicator: TA98, Metabolic Activation: NONE, Method: SUSPENSION/PLATE) was “inactive; negative” and the mutagenic call (Test System: AMES SALMONELLA TYPHIMURIUM, Strain/Indicator: TA100, Metabolic Activation: NONE, Method: SUSPENSION/PLATE) was “inactive; negative”.

With `O=CC(O)C(O)C(O)C(O)CO` (configuration not stated) the mutagenic call [7] was “inactive; negative”, the mutagenic call (Test System: AMES SALMONELLA TYPHIMURIUM, Strain/Indicator: TA97, Metabolic Activation: S-9, Method: PREINCUBATION) was “inactive; negative” and the mutagenic call (Test System: AMES SALMONELLA TYPHIMURIUM, Strain/Indicator: TA102, Metabolic Activation: NONE, Method: PREINCUBATION) was “inactive; negative”. The mutagenic call (Test System: AMES SALMONELLA TYPHIMURIUM, Strain/Indicator: TA102, Metabolic Activation: S-9, Method: PREINCUBATION) was “inactive; negative”.

In the case of `O=[N+]([O-])c1ccc(OC[C@H]2CO2)cc1`, the mutagenic call [6] is reported as “active; positive”.

In the case of `O=C(N=c1sn(C(=O)c2ccccc2)c2ccc([N+](=O)[O-])cc12)c1ccccc1`, the mutagenic call (Test System: AMES SALMONELLA TYPHIMURIUM, Strain/Indicator: TA100, Metabolic Activation: S-9, Method: STANDARD PLATE) is reported as “active; positive”.

In the case of `CCc1ccccc1NC(=O)c1csc([N+](=O)[O-])c1`, the mutagenic call [5] is reported as “active; positive” and the mutagenic call [6] is reported as “active; positive”.

In the case of `O=[N+]([O-])c1ccc2c(c1)c([N+](=O)[O-])cc1ccccc12`, the mutagenic call (Test System: AMES SALMONELLA TYPHIMURIUM, Strain/Indicator: TA98(1,8-DNP6), Metabolic Activation: NONE, Method: STANDARD PLATE) is reported as “active; positive”, the mutagenic call (Test System: AMES SALMONELLA TYPHIMURIUM, Strain/Indicator: TA98(NR), Metabolic Activation: NONE, Method: STANDARD PLATE) is reported as “active; positive” and the mutagenic call [5] is reported as “active; positive”. For the same compound, the mutagenic call [6] was “active; positive”, the mutagenic call (Test System: AMES SALMONELLA TYPHIMURIUM, Strain/Indicator: YG1021, Metabolic Activation: NONE, Method: STANDARD PLATE) was “active; positive” and the mutagenic call (Test System: AMES SALMONELLA TYPHIMURIUM, Strain/Indicator: YG1024, Metabolic Activation: NONE, Method: STANDARD PLATE) was “active; positive”. The mutagenic call (Test System: AMES SALMONELLA TYPHIMURIUM, Strain/Indicator: YG1026, Metabolic Activation: NONE, Method: STANDARD PLATE) was “active; positive” and the mutagenic call (Test System: AMES SALMONELLA TYPHIMURIUM, Strain/Indicator: YG1029, Metabolic Activation: NONE, Method: STANDARD PLATE) was “active; positive”.

`CN(CC(N)=O)C(=O)N(CCCl)N=O` was tested, and the mutagenic call (Test System: Mouse lymphoma, Strain/Indicator: L5178Y (tk+/tk-), Metabolic Activation: None, Method: Suspension/plate) was “active; positive” and the mutagenic call (Test System: Mouse lymphoma, Strain/Indicator: L5178Y (tk+/tk-), Metabolic Activation: Rat, Liver, S-9, Aroclor 1254, Method: Suspension/plate) was “active; positive”.

For `CN1CCN(c2ccc3nc(CCc4ccc5nc(-c6ccc(N(CCCl)CCCl)cc6)[nH]c5c4)[nH]c3c2)CC1`, the mutagenic call [5] was “inactive; negative”, the mutagenic call [6] was “inactive; negative” and the mutagenic call (Test System: AMES SALMONELLA TYPHIMURIUM, Strain/Indicator: TA102, Metabolic Activation: NONE, Method: STANDARD PLATE) was “active; positive”.

From PubChem BioAssay AID1259407 (Chemical Carcinogenesis Research Information System (CCRIS), 2018)
